Test results as given in patent US8372441B2, “Materials and methods for preparation of alkaline earth ferrates from alkaline earth oxides, peroxides, and nitrates” (Biolife, LLC, priority 2007, dated 2013).

What was measured:
[1] = tested on: mammalian blood; settings: dry powder on blood; cited from earlier work
[2] = cited from earlier work
[3] = solubility in water or saline solution; type: physicochemical; settings: for strontium ferrate water or saline solution

Row | Compound | hemostasis (background) [1] | solubility in water (background) [2] | solubility in water [3]
1 | OO.[Zn] [Zinc peroxide (ZnO2), Zinc peroxide] | some hemostatic activity | – | –
2 | [Ba+2].[O]=[Fe](=[O])([O-])[O-] [barium ferrate (BaFeO4), barium ferrate] | – | practically insoluble | –
3 | [O]=[Fe][O][Fe]=[O] [Ferric oxide] | – | – | insoluble
4 | strontium ferrate [strontium ferrate (SrFeO4)] | – | practically insoluble | –
5 | [Fe+4].[O-2].[O-2].[O-2].[O-2].[Sr+2].[Sr+2] [Strontium ferrate, strontium ferrate] | – | – | very insoluble
6 | [O-2].[Sr+2] [Strontium oxide] | some hemostasis | – | –
